Assay results taken from patent EP0536419B1, “TRICYCLIC TRIAZOLE DERIVATIVES, PRODUCTION AND USE THEREOF” (TORAY INDUSTRIES, INC., priority 1991, dated 1992).

What was measured:
PAF receptor = target: T1, PAF receptor (Oryctolagus cuniculus, UniProt G1TEI7); experiment: Binding test using [3H]-PAF (PAF receptor binding test); parameters: species or system rabbit; conditions: rabbit platelet membrane fraction, [3H]-PAF 0.4 nM, 25°C, 60 minutes; read-out: Receptor Binding Inhibition IC50 (converted)
T1 construct: Cell membrane fraction of rabbit platelets was prepared; from tissue; host or cells: rabbit platelets (cell membrane fraction)
T1 sequence (G1TEI7 1-342): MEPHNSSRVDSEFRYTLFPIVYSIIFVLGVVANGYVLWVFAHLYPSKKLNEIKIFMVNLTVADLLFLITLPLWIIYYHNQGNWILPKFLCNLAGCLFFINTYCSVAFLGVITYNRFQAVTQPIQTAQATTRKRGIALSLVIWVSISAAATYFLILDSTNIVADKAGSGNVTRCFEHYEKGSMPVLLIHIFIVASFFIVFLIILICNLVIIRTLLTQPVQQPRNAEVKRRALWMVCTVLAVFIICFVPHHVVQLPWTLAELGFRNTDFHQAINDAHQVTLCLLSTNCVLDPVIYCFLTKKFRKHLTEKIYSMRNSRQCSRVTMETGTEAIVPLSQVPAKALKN

[1] = test system: passive cutaneous anaphylaxis (PCA); experiment: Test for antiallergic action: rat passive cutaneous anaphylaxis (PCA) reaction; type: in vivo; conditions: rats, oral, 50 mg/kg in olive oil, 1 hour before antigen challenge, read-out: Inhibition Rate (%) Anti-PCA
Procedure: The antiallergic action was evaluated by passive cutaneous anaphylaxis (PCA) test using rats. The test was carried out using Wister male rats having body weights of 150 - 200 g. Physiological saline containing anti-dinitrophenyl group (DNP) mouse IgE monoclonal antibody (commercially available from Seikagaku Kogyo Co., Ltd.) was intracutaneously injected in the skin of the back of each rat. Twenty three hours later, a suspension of the test compound in olive oil was orally administered at a dose of 50 mg/kg to each rat. One hour later, 0.5 ml of physiological saline containing 2 mg/ml of ovalbumin modified with dinitrophenyl hapten and 1% Evans blue were administered to each rat via femoral vein. Thirty minutes later, the rat was killed by cutting the carotid artery. The skin was peeled off and the portion stained in blue was cut out. The cut out portion was minced in […] and the pigment was extracted at 60°C for 48 hours. The minced skin was removed by centrifugation (1500 x g, 10 min.) and the absorbance at 620 nm of the supernatant was measured. Based on a preliminarily prepared calibration curve, the pigment leaked to the topical portion was quantified. As a control, olive oil alone was administered and the ratio of the amount of the pigment in test groups to the amount of the pigment in control group is expressed as inhibition rate.

rabbit platelets = rabbit platelets (Oryctolagus cuniculus, UniProt G1TEI7); experiment: in vitro platelet agglutination inhibition test (PAF-induced); type: cell-based; conditions: rabbit platelet-rich plasma, PAF final concentration 10 ng/ml, 37°C; read-out: PAF-Induced Platelet Aggregation IC50 (converted)
rabbit platelets, sequence (G1TEI7 1-342): as above
Procedure: To determine the PAF-antagonizing property of the compounds, the PAF-induced agglutination of rabbit platelets in vitro is utilized. To obtain platelet-rich plasma (PRP), venous blood is taken from rabbit auricular vein into a plastic centrifugal tube containing 1.0% sodium citrate solution. The ratio of sodium citrate solution to blood is 1:10. The obtained citrate-containing blood is centrifuged at 70 x g (625 rpm) at room temperature for 20 minutes and the PRP in the upper layer is transferred to another plastic tube. The remaining lower layer is further centrifuged at 1500 x g (2800 rpm) for 10 minutes and the platelet poor plasma (PPP) in the upper layer is recovered. The platelet agglutination is measured by using aggregometer commercially available from Niko Bioscience, Inc. An aliquote of the PRP is poured into a cubette for measurement. Immediately thereafter, aspirin, creatinin phosphate and creatinin phosphokinase are added to final concentrations of 0.1 mM, 7 mM and 45 U/ml, respectively. Then a solution of a test compound is added and the resulting mixture is stirred at 37°C for 2 minutes. To the resultant, PAF (final concentration: 10 ng/ml) is added to induce platelet aggregation. The platelet aggregation rate is calculated from the relative maximum value in each aggregation curve taking the transmittance of PPP as the maximum aggregation (100% aggregation). Using the aggregation rate when physiological saline was added as a control, the inhibition rate which was the ratio of the aggregation rate when the test compound was added to the control was calculated and the IC50 values were determined by interpolation.

histamine = experiment: Histamine-antagonizing action: histamine-induced skin pigment leakage in rats; type: in vivo; conditions: Rattus norvegicus, oral, 50 mg/kg in olive oil, 1 hour before intracutaneous histamine (50 µl of 900 µM), read-out: Inhibition Rate (%) Antihistamine
Procedure: A suspension of a test compound in olive oil was orally administered at a dose of 50 mg/kg to each rat of the same kind as those used in 1. One hour later, physiological saline containing 1% Evans blue was intravenously administered at a dose of 3 ml/kg. Immediately thereafter, 50 µl of 900 µM histamine solution was intracutaneously administered to each rat. Thirty minutes later, the pigment in the blue-stained portion in the skin was extracted and quantified as mentioned above. Using the amount of the pigment when olive oil was administered as control, the inhibition rate which is the ratio of the amount of the pigment when the test compound was administered to the control was calculated.

[2] = test system: PAF-induced Bronchial Hyperresponsiveness; experiment: PAF-induced bronchial hyperresponsiveness model in guinea pigs; type: in vivo; conditions: oral, Dose 1 mg/kg, ratio of Ach threshold value after/before PAF inhalation
Procedure: The test was carried out using Hartley male guinea pigs having body weights of 300 - 400 g.
Guinea pigs were retained on body plethysmo boxes without anesthesia and the respiratory resistances (Rrs) were determined by osscilation method. […] The Ach threshold value which is required for the Rrs to reach 1.5 cm H2O/ml/sec was determined. […] The Ach threshold value means the value calculated taking the value when a guinea pig is made to inhale 1000 ug/ml of Ach aerosol for 1 minute as 1 unit. The above-described operation was carried out using Animal Ast (registered trademark) commercially available from Chest M. I. Co., Ltd.
By the method of A), the bronchial responsiveness of guinea pigs, that is, the Ach threshold values were determined. Subsequently, each animal was made to inhale aerosol of 100 µg/ml of PAF solution for 10 minutes. Forty minutes after the completion of the inhalation, the bronchial responsiveness was again measured by the method of A). The bronchial hyperresponsiveness was detected based on the ratio between the Ach threshold value before and after the inhalation of PAF (Ach respiration threshold value after inhalation of PAF/Ach respiration threshold value before inhalation of […]; Post/Pre value). That is, if the bronchial hyperresponsiveness is strongly promoted, the Post/Pre value is lower than 1.0, and if it is not promoted, the Post/Pre value is about 1.0. A suspension of a test compound in olive oil was orally administered to each guinea pig and the determined Post/Pre value was compared with that of the control group to which olive oil was administered to evaluate the inhibition effect. […]

## CCc1nnc2n1-c1ccccc1N(CCCN1CCC(c3c[nH]c4ccccc34)CC1)C2 [Compound 52, 1-ethyl-4,5-dihydro-5-[3-[4-(3-indolyl)piperidin-1-yl]propyl] [1,2,4]triazolo[4,3-a]quinoxaline]
PAF receptor
  IC50: 7.94 µM
[1]
  inhibition at 50 mg/kg: 65%
Rabbit platelets
  IC50: 12.3 µM
histamine
  inhibition at 50 mg/kg: 47%
[2]
  Post/Pre: 1.37
